Reference: US20250186408A1, “TREATMENT OF PHARMACORESISTANT EPILEPSY” (Katholieke Universiteit Leuven, priority 2021, published 2025)
Read-outs that look alike come from different tables or passages of the source.

Legend:
[1] = biological target: CAV1.2 (Homo sapiens, UniProt Q13936); test: Ion Channel CAV1.2 Blocker; assay type: cell-based
[2] = biological target: T1, HTR3A (Homo sapiens, UniProt P46098); test: Ion Channel HTR3A Blocker; assay type: cell-based; details: for Emax: Ion Channel HTR3A Blocker, read-out: Max response
T1 sequence (P46098 24-478): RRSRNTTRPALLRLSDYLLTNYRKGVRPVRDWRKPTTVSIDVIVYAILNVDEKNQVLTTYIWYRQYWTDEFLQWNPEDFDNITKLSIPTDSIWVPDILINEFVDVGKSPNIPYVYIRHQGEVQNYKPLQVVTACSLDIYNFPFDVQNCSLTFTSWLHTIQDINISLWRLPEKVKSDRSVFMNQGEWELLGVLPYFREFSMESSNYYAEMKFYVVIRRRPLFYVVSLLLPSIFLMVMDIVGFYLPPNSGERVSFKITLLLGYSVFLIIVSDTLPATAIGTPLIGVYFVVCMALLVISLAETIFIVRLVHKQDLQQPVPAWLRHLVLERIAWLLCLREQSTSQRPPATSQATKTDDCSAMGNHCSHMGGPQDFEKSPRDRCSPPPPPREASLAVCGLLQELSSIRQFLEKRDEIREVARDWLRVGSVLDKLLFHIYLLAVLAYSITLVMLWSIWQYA

[3] = biological target: ADRB2 (Homo sapiens, UniProt P07550); test: cAMP ADRB2 Agonist; assay type: cell-based; details: for Emax: read-out: Max response
ADRB2, sequence (P07550 whole entry): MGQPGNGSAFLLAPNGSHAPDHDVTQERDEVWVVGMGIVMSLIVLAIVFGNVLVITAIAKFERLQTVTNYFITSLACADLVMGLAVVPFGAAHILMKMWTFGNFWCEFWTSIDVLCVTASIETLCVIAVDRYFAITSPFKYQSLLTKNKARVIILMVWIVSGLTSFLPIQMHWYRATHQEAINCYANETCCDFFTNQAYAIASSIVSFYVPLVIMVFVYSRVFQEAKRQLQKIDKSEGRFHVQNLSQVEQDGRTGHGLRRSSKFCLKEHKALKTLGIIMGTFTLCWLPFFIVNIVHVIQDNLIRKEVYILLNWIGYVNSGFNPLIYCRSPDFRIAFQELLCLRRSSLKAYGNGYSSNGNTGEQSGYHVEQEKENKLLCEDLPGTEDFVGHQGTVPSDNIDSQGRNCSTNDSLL
Method: cAMP Hunter cell lines were expanded from freezer stocks. […] For Gi agonist determination, cells were incubated with sample in the presence of EC80 forskolin to induce response. For both conditions, media was aspirated from cells and replaced with 15 μL 2:1 HBSS/10 mM HEPES:cAMP XS+ Ab reagent. […] 5 μL of 4× sample was added to cells and incubated at 37° C. or room temperature (RT) for 30 or 60 min. Final assay vehicle concentration was 1%. […] Media was aspirated from cells and replaced with 10 μL 1:1 HBSS/HEPES:cAMP XS+ Ab reagent. […] For Gi coupled GPCRs, EC80 forskolin was included. […] Compound activity was analyzed using CBIS data analysis suite (ChemInnovation, CA).

[4] = biological target: AVPR1A (Homo sapiens, UniProt P37288); test: Calcium Flux AVPR1A Antagonist; assay type: cell-based; details: for IC50: read-out: RC50, result type IC50; for Emax: read-out: Max response
AVPR1A, sequence (P37288 whole entry): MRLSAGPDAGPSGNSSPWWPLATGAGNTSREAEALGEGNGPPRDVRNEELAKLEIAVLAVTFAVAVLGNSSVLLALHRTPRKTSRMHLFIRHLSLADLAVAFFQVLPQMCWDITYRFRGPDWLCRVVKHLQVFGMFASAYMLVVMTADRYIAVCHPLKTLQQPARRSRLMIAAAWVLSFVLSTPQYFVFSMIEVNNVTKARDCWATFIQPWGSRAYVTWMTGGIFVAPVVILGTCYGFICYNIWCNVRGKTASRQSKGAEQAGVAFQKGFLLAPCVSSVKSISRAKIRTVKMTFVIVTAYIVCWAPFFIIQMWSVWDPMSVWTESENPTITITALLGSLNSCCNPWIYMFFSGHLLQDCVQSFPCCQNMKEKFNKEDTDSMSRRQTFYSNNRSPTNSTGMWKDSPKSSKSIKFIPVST
Method: (§1) (≤0.2% DMSO concentration). Assays were performed in 1× dye loading buffer consisting of 1× Dye (DiscoverX, Calcium No Wash^PLUS kit, Catalog No. 90-0091), 1× Additive A and 2.5 mM Probenecid in HBSS/20 mM HEPES. Probenecid was prepared fresh. Prior to testing, media was aspirated from cells and replaced with 25 μL dye loading buffer. Cells were incubated for 45 min at 37° C. and then 20 min at RT. For agonist determination, 25 μL of 2× compound in HBSS/20 mM HEPES was added using a FLIPR Tetra (MDS). […] 25 μL of 2× sample was added and cells were incubated for 30 min at RT in the dark to equilibrate plate temperature. After incubation, antagonist determination was initiated by addition of 25 μL of 1× compound with 3×EC80 agonist using FLIPR. For both agonist and antagonist formats, activity was measure on a FLIPR Tetra (MDS). Calcium mobilization was monitored for 2 min with a 5 sec baseline read.
(§2) FLIPR read—Area under the curve, was calculated for the entire 2 min read.

[5] = biological target: GABAA (Homo sapiens, UniProt P14867+P18507+P47870); test: Ion Channel GABAA Opener; assay type: cell-based; details: read-out: Max response
GABAA, sequence (P14867 28-456): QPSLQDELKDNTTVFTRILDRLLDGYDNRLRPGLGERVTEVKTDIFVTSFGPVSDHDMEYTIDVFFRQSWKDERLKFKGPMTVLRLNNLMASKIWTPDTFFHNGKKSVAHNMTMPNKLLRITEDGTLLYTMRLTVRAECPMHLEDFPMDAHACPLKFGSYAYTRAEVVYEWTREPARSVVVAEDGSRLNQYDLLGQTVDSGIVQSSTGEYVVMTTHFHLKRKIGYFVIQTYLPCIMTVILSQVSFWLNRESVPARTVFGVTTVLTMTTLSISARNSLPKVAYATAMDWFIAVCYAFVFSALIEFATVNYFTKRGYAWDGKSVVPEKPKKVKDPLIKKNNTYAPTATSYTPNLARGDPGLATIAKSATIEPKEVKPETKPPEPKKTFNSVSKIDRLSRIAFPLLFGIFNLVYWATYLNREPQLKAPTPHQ
GABAA, sequence (P47870 26-512): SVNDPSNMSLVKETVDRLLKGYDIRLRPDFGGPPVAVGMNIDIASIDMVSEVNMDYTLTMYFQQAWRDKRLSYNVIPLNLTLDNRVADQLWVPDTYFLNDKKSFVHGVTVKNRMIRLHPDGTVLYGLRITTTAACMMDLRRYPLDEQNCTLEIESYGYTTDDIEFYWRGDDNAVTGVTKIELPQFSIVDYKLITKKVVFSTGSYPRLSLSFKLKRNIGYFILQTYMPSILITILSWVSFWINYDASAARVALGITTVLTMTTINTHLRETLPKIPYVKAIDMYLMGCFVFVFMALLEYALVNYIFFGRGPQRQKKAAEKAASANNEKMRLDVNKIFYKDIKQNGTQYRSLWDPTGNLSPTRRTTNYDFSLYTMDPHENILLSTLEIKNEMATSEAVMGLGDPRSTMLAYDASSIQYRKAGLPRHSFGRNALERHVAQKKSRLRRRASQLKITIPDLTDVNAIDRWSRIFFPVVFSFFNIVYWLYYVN
GABAA, sequence (P18507 40-475): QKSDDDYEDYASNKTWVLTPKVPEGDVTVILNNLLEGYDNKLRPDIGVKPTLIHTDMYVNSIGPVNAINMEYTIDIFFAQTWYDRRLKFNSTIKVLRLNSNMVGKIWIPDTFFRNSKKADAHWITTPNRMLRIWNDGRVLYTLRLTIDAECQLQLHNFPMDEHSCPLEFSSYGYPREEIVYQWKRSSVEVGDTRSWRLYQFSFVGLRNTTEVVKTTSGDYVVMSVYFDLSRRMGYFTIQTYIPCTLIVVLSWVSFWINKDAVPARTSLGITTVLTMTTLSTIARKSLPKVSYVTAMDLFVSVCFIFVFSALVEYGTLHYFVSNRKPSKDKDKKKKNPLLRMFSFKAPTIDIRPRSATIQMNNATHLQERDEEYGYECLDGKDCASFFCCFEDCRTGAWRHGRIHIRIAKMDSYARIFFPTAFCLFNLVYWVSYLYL

[6] = biological target: CNR2 (Homo sapiens, UniProt P34972); test: cAMP CNR2 Agonist; details: for Emax: read-out: Max response
CNR2, sequence (P34972 whole entry): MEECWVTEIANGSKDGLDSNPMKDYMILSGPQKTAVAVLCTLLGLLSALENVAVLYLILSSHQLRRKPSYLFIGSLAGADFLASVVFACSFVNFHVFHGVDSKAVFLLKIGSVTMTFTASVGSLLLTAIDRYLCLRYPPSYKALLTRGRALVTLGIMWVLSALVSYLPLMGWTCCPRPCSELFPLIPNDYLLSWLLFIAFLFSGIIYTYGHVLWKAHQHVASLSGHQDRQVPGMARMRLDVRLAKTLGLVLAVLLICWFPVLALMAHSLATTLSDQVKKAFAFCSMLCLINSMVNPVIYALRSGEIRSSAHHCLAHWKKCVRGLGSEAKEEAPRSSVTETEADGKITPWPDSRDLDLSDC
Method: (§3) In vitro pharmacological profiling of compounds was done against 78 functional assays for 47 common off-targets (30) by Eurofins DiscoverX Corporation (Fremont, CA, USA) using their SAFETYscan E/IC50 ELECT service (Cat Ref 87-1003DR, Safety47 Panel Dose Response). […] Compounds were tested in a range of 10 concentrations, following a 3-fold serial dilution, starting from 10 μM. The assays were performed utilizing the PathHunter enzyme fragment complementation (EFC) technology, FLIPR®-based cellular screening assays, and KINOMEscan kinase binding assays.
cAMP Hunter cell lines were expanded from freezer stocks. Prior to testing, cells were seeded in a total volume of 20 μL into white walled 384-well microplates and incubated at 37° C. cAMP modulation was determined using the DiscoverX HitHunter cAMP XS+ assay. For Gs agonist determination, cells were incubated with sample to induce response. For Gi agonist determination, cells were incubated with sample in the presence of EC80 forskolin to induce response. For both conditions, media was aspirated from cells and replaced with 15 μL 2:1 HBSS/10 mM HEPES:cAMP XS+ Ab reagent. Intermediate dilution of sample stocks was performed to generate 4× sample in assay buffer (containing 4×EC80 forskolin in the case of antagonist determination). 5 μL of 4× sample was added to cells and incubated at 37° C. or room temperature (RT) for 30 or 60 min. Final assay vehicle concentration was 1%. For antagonist determination, cells were pre-incubated with sample followed by agonist challenge at the EC80 concentration. Media was aspirated from cells and replaced with 10 μL 1:1 HBSS/HEPES:cAMP XS+ Ab reagent. 5 μL of 4× compound was added to the cells and incubated at 37° C. or RT for 30 min. 5 μL of 4×EC80 agonist was added to the cells and incubated at 37° C. or RT for 30 or 60 min. For Gi coupled GPCRs, EC80 forskolin was included. […] Microplates were read following signal generation with a PerkinElmer Envision™ instrument for chemiluminescent signal detection. Compound activity was analyzed using CBIS data analysis suite (ChemInnovation, CA).

[7] = biological target: T2, CCKAR (Homo sapiens, UniProt P32238); test: Calcium Flux CCKAR Agonist; assay type: cell-based; details: for EC50: read-out: RC50, result type EC50; for Emax: read-out: Max response
T2 sequence (P32238 1-428): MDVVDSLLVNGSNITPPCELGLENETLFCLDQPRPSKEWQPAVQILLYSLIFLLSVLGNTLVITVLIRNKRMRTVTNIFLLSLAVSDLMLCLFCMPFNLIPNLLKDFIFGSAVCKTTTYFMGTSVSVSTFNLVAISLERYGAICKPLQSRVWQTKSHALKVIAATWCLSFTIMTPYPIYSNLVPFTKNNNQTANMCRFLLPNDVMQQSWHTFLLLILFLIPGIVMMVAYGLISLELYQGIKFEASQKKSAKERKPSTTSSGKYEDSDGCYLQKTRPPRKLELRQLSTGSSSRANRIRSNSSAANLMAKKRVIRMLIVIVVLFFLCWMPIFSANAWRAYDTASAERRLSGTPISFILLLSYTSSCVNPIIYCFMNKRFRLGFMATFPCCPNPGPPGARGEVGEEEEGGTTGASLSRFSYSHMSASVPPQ
Method: as §1, §2

[8] = biological target: HRH1 (Homo sapiens, UniProt P35367); test: Calcium Flux HRH1 Agonist; assay type: cell-based; details: for Emax: read-out: Max response
HRH1, sequence (P35367 whole entry): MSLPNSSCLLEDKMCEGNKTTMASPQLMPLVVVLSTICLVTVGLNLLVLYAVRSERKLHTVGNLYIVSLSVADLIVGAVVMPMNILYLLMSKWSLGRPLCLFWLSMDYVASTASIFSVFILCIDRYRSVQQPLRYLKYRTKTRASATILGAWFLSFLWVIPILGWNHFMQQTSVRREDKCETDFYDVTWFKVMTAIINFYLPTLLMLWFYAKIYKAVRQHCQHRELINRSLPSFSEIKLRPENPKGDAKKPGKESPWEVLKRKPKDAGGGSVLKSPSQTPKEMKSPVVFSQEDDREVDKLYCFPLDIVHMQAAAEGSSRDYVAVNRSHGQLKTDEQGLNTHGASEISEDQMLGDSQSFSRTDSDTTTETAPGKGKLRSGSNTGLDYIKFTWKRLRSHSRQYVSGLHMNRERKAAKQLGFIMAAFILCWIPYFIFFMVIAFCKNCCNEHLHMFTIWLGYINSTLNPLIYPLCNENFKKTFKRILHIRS
Method: as §1, §2

[9] = biological target: HTR2A (Homo sapiens, UniProt P28223); test: Calcium Flux HTR2A Agonist; details: for Emax: read-out: Max response
HTR2A, sequence (P28223 whole entry): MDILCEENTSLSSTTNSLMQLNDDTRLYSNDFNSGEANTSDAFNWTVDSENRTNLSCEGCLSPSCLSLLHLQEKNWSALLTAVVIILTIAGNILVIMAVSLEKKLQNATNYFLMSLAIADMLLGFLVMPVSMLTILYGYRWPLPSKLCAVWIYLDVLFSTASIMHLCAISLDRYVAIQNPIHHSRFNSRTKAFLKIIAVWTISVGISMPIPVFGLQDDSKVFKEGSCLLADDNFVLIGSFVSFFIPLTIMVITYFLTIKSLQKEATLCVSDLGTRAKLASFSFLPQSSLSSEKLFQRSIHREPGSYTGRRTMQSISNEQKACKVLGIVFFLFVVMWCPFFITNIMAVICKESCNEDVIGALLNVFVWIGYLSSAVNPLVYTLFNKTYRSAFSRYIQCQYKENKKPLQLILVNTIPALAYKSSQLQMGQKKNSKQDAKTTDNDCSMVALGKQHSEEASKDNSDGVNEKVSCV
Method: as §3
Prior to testing, cells (10,000 cells/well) were expanded from freezer stocks and seeded into a total volume of 50 μL into black walled, clear-bottom, Poly-D-lysine coated 384-well microplates and incubated at 37° C. […] Assays were performed in 1× dye loading buffer consisting of 1× Dye (DiscoverX, Calcium No Wash^PLUS kit, Catalog No. 90-0091), 1× Additive A and 2.5 mM Probenecid in HBSS/20 mM HEPES. Probenecid was prepared fresh. Prior to testing, media was aspirated from cells and replaced with 25 μL dye loading buffer. Cells were incubated for 45 min at 37° C. and then 20 min at RT. For agonist determination, 25 μL of 2× compound in HBSS/20 mM HEPES was added using a FLIPR Tetra (MDS). For antagonist determination, cells were pre-incubated with sample followed by agonist challenge at the EC80 concentration. 25 μL of 2× sample was added and cells were incubated for 30 min at RT in the dark to equilibrate plate temperature. After incubation, antagonist determination was initiated by addition of 25 μL of 1× compound with 3×EC80 agonist using FLIPR. For both agonist and antagonist formats, activity was measure on a FLIPR Tetra (MDS). Calcium mobilization was monitored for 2 min with a 5 sec baseline read.
FLIPR read—Area under the curve, was calculated for the entire 2 min read. Compound activity was analysed using CBIS data analysis suite (ChemInnovation, CA).

[10] = biological target: T3, CHRM2 (Homo sapiens, UniProt P08172); test: cAMP CHRM2 Antagonist; details: for Emax: read-out: Max response
T3 sequence (P08172 1-466): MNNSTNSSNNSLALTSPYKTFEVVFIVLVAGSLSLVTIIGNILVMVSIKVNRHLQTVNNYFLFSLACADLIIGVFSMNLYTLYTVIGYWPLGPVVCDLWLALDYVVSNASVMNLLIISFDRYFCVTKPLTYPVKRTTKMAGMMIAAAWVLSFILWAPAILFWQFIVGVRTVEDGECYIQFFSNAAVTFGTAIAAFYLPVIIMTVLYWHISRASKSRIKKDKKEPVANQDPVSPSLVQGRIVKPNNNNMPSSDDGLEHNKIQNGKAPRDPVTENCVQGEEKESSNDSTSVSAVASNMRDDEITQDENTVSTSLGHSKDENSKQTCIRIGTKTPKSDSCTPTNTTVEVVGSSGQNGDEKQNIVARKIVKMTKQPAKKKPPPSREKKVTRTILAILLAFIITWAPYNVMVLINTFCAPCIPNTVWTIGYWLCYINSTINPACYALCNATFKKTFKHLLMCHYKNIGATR
Method: In vitro pharmacological profiling of compounds was done against 78 functional assays for 47 common off-targets (30) by Eurofins DiscoverX Corporation (Fremont, CA, USA) using their SAFETYscan E/IC50 ELECT service (Cat Ref 87-1003DR, Safety47 Panel Dose Response). […] Compounds were tested in a range of 10 concentrations, following a 3-fold serial dilution, starting from 10 μM.
cAMP Hunter cell lines were expanded from freezer stocks. Prior to testing, cells were seeded in a total volume of 20 μL into white walled 384-well microplates and incubated at 37° C. cAMP modulation was determined using the DiscoverX HitHunter cAMP XS+ assay. For Gs agonist determination, cells were incubated with sample to induce response. For Gi agonist determination, cells were incubated with sample in the presence of EC80 forskolin to induce response. For both conditions, media was aspirated from cells and replaced with 15 μL 2:1 HBSS/10 mM HEPES:cAMP XS+ Ab reagent. Intermediate dilution of sample stocks was performed to generate 4× sample in assay buffer (containing 4×EC80 forskolin in the case of antagonist determination). 5 μL of 4× sample was added to cells and incubated at 37° C. or room temperature (RT) for 30 or 60 min. Final assay vehicle concentration was 1%. For antagonist determination, cells were pre-incubated with sample followed by agonist challenge at the EC80 concentration. Media was aspirated from cells and replaced with 10 μL 1:1 HBSS/HEPES:cAMP XS+ Ab reagent. 5 μL of 4× compound was added to the cells and incubated at 37° C. or RT for 30 min. 5 μL of 4×EC80 agonist was added to the cells and incubated at 37° C. or RT for 30 or 60 min. For Gi coupled GPCRs, EC80 forskolin was included. […] Microplates were read following signal generation with a PerkinElmer Envision™ instrument for chemiluminescent signal detection. Compound activity was analyzed using CBIS data analysis suite (ChemInnovation, CA). For Gs agonist mode assays, percentage activity was calculated using the following equation:

| SMILES | IC50 [1] [µM] | IC50 [2] [µM] | Emax [2] [%] | IC50 ([4]; Calcium Flux AVPR1A Antagonist) [µM] | Emax [5] [%] | EC50 [6] [µM] | Emax [6] [%] | EC50 ([7]; Calcium Flux CCKAR Agonist) [µM] | EC50 [9] [µM] | Emax [9] [%] | IC50 [10] [µM] | Emax [10] [%] | also measured |
| --- | --- | --- | --- | --- | --- | --- | --- | --- | --- | --- | --- | --- | --- |
| CC(C)(C)c1ccc(C#CC(O)c2ccccc2)cc1 (racemic) [Compound 3.3, rac-3-(4-(tert-butyl)phenyl)-1-phenylprop-2-yn-1-ol] | > 10 | > 10 | 50.1 | > 10 | 0 | > 10 | 38.1 | > 10 | > 10 | 0 | 4.3 | 90.1 | Emax at 30 min ([1]; Ion Channel CAV1.2 Blocker, read-out: Max response): 7.2%; EC50 [3]: > 10 µM; Emax [3]: 1.9%; Emax [4]: 0%; Emax [7]: 0.2%; EC50 [8]: > 10 µM; Emax [8]: 0% |
| Clc1cccc(C#Cc2n[nH]c3ncccc23)c1 [Compound 10.1, 3-((3-chlorophenyl)ethynyl)-1H-pyrazolo[3,4-b]pyridine] | > 10 | > 10 | 19.7 | > 10 | 1.3 | > 10 | 49.3 | > 10 | > 10 | 0 | > 10 | 0 | Emax at 30 min [1]: 0%; Emax ([3]; cAMP ADRB2 Agonist): 0.3%; EC50 ([3]; cAMP ADRB2 Agonist, read-out: RC50, result type EC50): > 10 µM; Emax ([4]; Calcium Flux AVPR1A Antagonist): 0%; Emax ([7]; Calcium Flux CCKAR Agonist): 0.3%; Emax ([8]; Calcium Flux HRH1 Agonist): 0%; EC50 ([8]; Calcium Flux HRH1 Agonist, read-out: RC50, result type EC50): > 10 µM |
